Tests used:
[1] = system: Female Sprague Dawley CD rats, ovx; assay: 6-week ovariectomized rat model; type: in vivo; conditions: 2 μg/rat, s.c., following 6 weeks of treatment, mean ± SEM
Excerpt: Method No. 20 6-Week Ovariectomized Rat Model
Female Sprague Dawley CD rats, ovx or sham ovx, were obtained 1 day after surgery from Taconic Farm (weight range 240–275 g). They were housed 3 or 4 rats/cage in a room on a 14/10 (light/dark) schedule and provided with food (Purina 500 rat chow) and water ad libitum. Treatment for all studies began 1 day after the animals arrival and dosed 5 or 7 days per week as indicated for 6 weeks. A group of age matched sham operated rats not receiving any treatment served as an intact, estrogen replete control group for each study. All treatments were prepared in 1% tween 80 in normal saline at defined concentrations so that the treatment volume was 0.1 mL/100 g body weight. 17-beta estradiol was dissolved in corn oil (20 uG/mL) and delivered subcutaneously, 0.1 mL/rat. All dosages were adjusted at three week intervals according to group mean body weight measurements.
Five weeks after the initiation of treatment and one week prior to the termination of the study, each rat was evaluated for bone mineral density (BMD). The BMD's of the proximal tibiae (PT) and fourth lumbar vertabrae (L4) were measured in anesthetized rats using a dual energy X-ray absorptiometer (Eclipse XR-26, Norland Corp. Ft. Atkins, Wis.). […] Total cholesterol is determined using a Boehringer-Mannheim Hitachi 911 clinical analyzer using the Cholesterol/HP kit. […]

Ishikawa cells = assay: Ishikawa cell alkaline phosphatase assay; type: cell-based, human
Protocol: Cells were treated for 48 h prior to assay. […] Sample population for at each dose was n=8. […] Plates are placed at -80° C. for a minimum of 15 minutes. Plates are thawed at 37° C. followed by the addition of 150 μL of 0.1 M Tris-HCl, pH 9.8, containing 4 mM para-nitrophenylphosphate (pNPP) to each well (final concentration, 3 mM pNPP). Absorbance and slope calculations were made using the […] Application program (Bio-Tek Instruments, Inc., Winooski, Vt.). […] The four listed in the following were used as reference standards: A description of these methods is described by Holinka, […]., Kuramoto, H. and Gurpide, E. (1986) Effects of steroid hormones and antisteroids on alkaline phosphatase activity in human endometrial cancer cells (Ishikawa Line). Cancer Research, 46:2771-2774, and by […]. and […] simple and sensitive microtiter plate estrogen bioassay based on stimulation alkaline phosphatase in Ishikawa cells; […] Endocrinology, 6:2757-2762.

- EC50 (Ishikawa cells; reference standards, read-out: ED50 values (95% C.I.), estrogenic activity by the alkaline phosphatase method): 0.03 nM
SMILES: C[C@]12CC[C@@H]3c4ccc(O)cc4CC[C@H]3[C@@H]1CC[C@@H]2O [17β-estradiol]
- Cholesterol [1]: 95.5 ± 3.9 mg/dL
- % Activation (Ishikawa cells; compound alone, percent of response related to 1 nM 17β-estradiol): 100%
